{"source": "patent US20060069132A1", "about": "“Azolecarboxamide herbicides” (priority 2004, published 2006)", "key": {"[1]": {"system": "large crabgrass", "assay": "Test C pre-/postemergence herbicide test", "assay_type": "in vivo, Digitaria sanguinalis", "details": "for Plant response rating, Crabgrass, Large: preemergence; for Crabgrass, Large plant response rating: Preemergence, scale 0 to 100, 0 no effect, 100 complete control", "summary_of_the_method": "(§1)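 Greenhouse-grown plants were evaluated visually 12 to 14 days after treatment, with 100 meaning complete control and 0 no effect. Application was preemergence, or postemergence at 2 to 18 cm.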"}, "[2]": {"system": "rice", "assay": "Test B pre-/postemergence herbicide test", "assay_type": "in vivo, Oryza sativa", "details": "preemergence; for Rice plant response rating (0 to 100 scale): 125 g ai/ha; for Plant response rating, Rice: 500 g ai/ha", "summary_of_the_method": "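Herbicidal effect was judged by eye on a 0–100 scale after plants stood 13 to 15 days in the greenhouse following pre- or postemergence treatment with surfactant-containing formulations.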"}, "[3]": {"system": "barnyardgrass", "assay": "Test A pre-/postemergence herbicide test", "assay_type": "in vivo, Echinochloa crus-galli", "summary_of_the_method": "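Plants are held in greenhouse about ten days after treatment, then compared with untreated controls and scored 0 (no effect) to 100 (complete control). Preemergence dosing is a directed soil spray on sown sandy loam; postemergence dosing is spray to runoff at 2–10 cm height.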"}, "[4]": {"system": "pigweed", "assay": "Test C pre-/postemergence herbicide test", "assay_type": "in vivo, Amaranthus retroflexus", "details": "for Plant response rating, Pigweed: preemergence; for Pigweed plant response rating: Preemergence, scale 0 to 100, 0 no effect, 100 complete control", "summary_of_the_method": "as §1"}, "[5]": {"system": "eastern black nightshade", "assay": "Test C pre-/postemergence herbicide test", "assay_type": "in vivo, Solanum ptycanthum", "details": "for Plant response rating, Nightshade: preemergence; for Nightshade plant response rating: Preemergence, scale 0 to 100, 0 no effect, 100 complete control", "summary_of_the_method": "as §1"}, "[6]": {"system": "common ragweed", "assay": "Test C pre-/postemergence herbicide test", "assay_type": "in vivo, Ambrosia elatior", "parameters": "key to Plant response rating, Ragweed: 0 = no effect, 100 = complete control", "details": "for Plant response rating, Ragweed: preemergence; for Ragweed plant response rating: Preemergence, scale 0 to 100, 0 no effect, 100 complete control", "summary_of_the_method": "as §1"}, "[7]": {"system": "Surinam grass", "assay": "Test C pre-/postemergence herbicide test", "assay_type": "in vivo, Urochloa decumbens", "details": "for Plant response rating, Surinam Grass: preemergence; for Surinam Grass plant response rating: Preemergence, scale 0 to 100, 0 no effect, 100 complete control", "summary_of_the_method": "as §1"}, "[8]": {"details": "125 g ai/ha, scale 0 (no effect) to 100 (complete control), visual, 12 to 14 days"}, "[9]": {"details": "0 = no effect, 100 = complete control"}, "[10]": {"details": "visual rating 0-100, 0 no effect, 100 complete control"}, "[11]": {"details": "Postemergence, 500 g ai/ha, 0 to 100 scale, 0 no effect, 100 complete control"}, "[12]": {"details": "Postemergence, 2000 g ai/ha, 0 to 100 scale, 0 no effect, 100 complete control"}, "[13]": {"details": "Preemergence, 2000 g ai/ha, visual rating, 0 to 100 scale (0 no effect, 100 complete control)"}, "[14]": {"details": "preemergence, 500 g ai/ha, visual injury, 0 to 100 scale (0 no effect, 100 complete control)"}, "[15]": {"details": "500 g ai/ha, scale 0 to 100 (0 no effect, 100 complete control), visual, 12 to 14 days"}}}
{"smiles": "CC(=NO)c1cccc(NC(=O)c2sc(C(C)(C)C)nc2C)c1", "note": "[Compound 195]", "values": [{"measurement": "Plant response rating, Crabgrass, Large", "setting": "[1]; 62 g ai/ha, scale 0 to 100", "value": 0}, {"measurement": "Plant response rating, Crabgrass, Large", "setting": "[1]; [8]", "value": 0}, {"measurement": "Plant response rating, Crabgrass, Large", "setting": "[1]; 250 g ai/ha, scale 0-100", "value": 5}, {"measurement": "Crabgrass, Large plant response rating", "setting": "[1]; 500 g ai/ha", "value": 70}, {"measurement": "Rice plant response rating (0 to 100 scale)", "setting": "[2]; [9]", "value": 10}, {"measurement": "Plant response rating, Rice", "setting": "[2]; [10]", "value": 20}, {"measurement": "Barnyardgrass plant response rating", "setting": "[3]; [11]", "value": 15}, {"measurement": "Plant response rating, Barnyardgrass", "setting": "[3]; [12]", "value": 50}, {"measurement": "Barnyardgrass plant response rating", "setting": "[3]; [13]", "value": 45}, {"measurement": "Barnyardgrass plant response rating", "setting": "[3]; [14]", "value": 20}, {"measurement": "Plant response rating, Pigweed", "setting": "[4]; 62 g ai/ha, scale 0 to 100", "value": 55}, {"measurement": "Plant response rating, Pigweed", "setting": "[4]; [8]", "value": 60}, {"measurement": "Plant response rating, Pigweed", "setting": "[4]; 250 g ai/ha, scale 0-100", "value": 90}, {"measurement": "Pigweed plant response rating", "setting": "[4]; 500 g ai/ha", "value": 90}, {"measurement": "Plant response rating, Nightshade", "setting": "[5]; 62 g ai/ha, scale 0 to 100", "value": 0}, {"measurement": "Plant response rating, Nightshade", "setting": "[5]; [8]", "value": 0}, {"measurement": "Plant response rating, Nightshade", "setting": "[5]; 250 g ai/ha, scale 0-100", "value": 0}, {"measurement": "Nightshade plant response rating", "setting": "[5]; 500 g ai/ha", "value": 0}, {"measurement": "Plant response rating, Ragweed", "setting": "[6]; 62 g ai/ha, scale 0 to 100", "value": 20}, {"measurement": "Plant response rating, Ragweed", "setting": "[6]; [8]", "value": 40}, {"measurement": "Plant response rating, Ragweed", "setting": "[6]; 250 g ai/ha, scale 0-100", "value": 80}, {"measurement": "Ragweed plant response rating", "setting": "[6]; 500 g ai/ha", "value": 90}, {"measurement": "Plant response rating, Surinam Grass", "setting": "[7]; 62 g ai/ha, scale 0 to 100", "value": 0}, {"measurement": "Plant response rating, Surinam Grass", "setting": "[7]; [8]", "value": 0}, {"measurement": "Plant response rating, Surinam Grass", "setting": "[7]; 250 g ai/ha, scale 0-100", "value": 85}, {"measurement": "Surinam Grass plant response rating", "setting": "[7]; 500 g ai/ha", "value": 85}]}
{"smiles": "CCNC(=O)c1cccc(NC(=O)c2sc(C(C)(C)C)nc2C)c1", "note": "[Compound 198]", "values": [{"measurement": "Plant response rating, Crabgrass, Large", "setting": "[1]; 62 g ai/ha, scale 0 to 100", "value": 80}, {"measurement": "Plant response rating, Crabgrass, Large", "setting": "[1]; [8]", "value": 85}, {"measurement": "Plant response rating, Crabgrass, Large", "setting": "[1]; 250 g ai/ha, scale 0-100", "value": 95}, {"measurement": "Crabgrass, Large plant response rating", "setting": "[1]; 500 g ai/ha", "value": 95}, {"measurement": "Rice plant response rating (0 to 100 scale)", "setting": "[2]; [9]", "value": 30}, {"measurement": "Plant response rating, Rice", "setting": "[2]; [10]", "value": 80}, {"measurement": "Barnyardgrass plant response rating", "setting": "[3]; [11]", "value": 45}, {"measurement": "Plant response rating, Barnyardgrass", "setting": "[3]; [12]", "value": 80}, {"measurement": "Barnyardgrass plant response rating", "setting": "[3]; [13]", "value": 90}, {"measurement": "Barnyardgrass plant response rating", "setting": "[3]; [14]", "value": 55}, {"measurement": "Plant response rating, Pigweed", "setting": "[4]; 62 g ai/ha, scale 0 to 100", "value": 100}, {"measurement": "Plant response rating, Pigweed", "setting": "[4]; [8]", "value": 100}, {"measurement": "Plant response rating, Pigweed", "setting": "[4]; 250 g ai/ha, scale 0-100", "value": 100}, {"measurement": "Pigweed plant response rating", "setting": "[4]; 500 g ai/ha", "value": 100}, {"measurement": "Plant response rating, Nightshade", "setting": "[5]; 62 g ai/ha, scale 0 to 100", "value": 90}, {"measurement": "Plant response rating, Nightshade", "setting": "[5]; [8]", "value": 95}, {"measurement": "Plant response rating, Nightshade", "setting": "[5]; 250 g ai/ha, scale 0-100", "value": 100}, {"measurement": "Nightshade plant response rating", "setting": "[5]; 500 g ai/ha", "value": 100}, {"measurement": "Plant response rating, Ragweed", "setting": "[6]; 62 g ai/ha, scale 0 to 100", "value": 50}, {"measurement": "Plant response rating, Ragweed", "setting": "[6]; [8]", "value": 80}, {"measurement": "Plant response rating, Ragweed", "setting": "[6]; 250 g ai/ha, scale 0-100", "value": 95}, {"measurement": "Ragweed plant response rating", "setting": "[6]; 500 g ai/ha", "value": 100}, {"measurement": "Plant response rating, Surinam Grass", "setting": "[7]; 62 g ai/ha, scale 0 to 100", "value": 0}, {"measurement": "Plant response rating, Surinam Grass", "setting": "[7]; [8]", "value": 10}, {"measurement": "Plant response rating, Surinam Grass", "setting": "[7]; 250 g ai/ha, scale 0-100", "value": 30}, {"measurement": "Surinam Grass plant response rating", "setting": "[7]; 500 g ai/ha", "value": 100}]}
{"smiles": "CCNC(=O)c1cccc(NC(=O)c2sc(C(C)(C)C)nc2CC)n1", "note": "[Compound 213]", "values": [{"measurement": "Plant response rating, Crabgrass, Large", "setting": "[1]; 62 g ai/ha, scale 0 to 100", "value": 0}, {"measurement": "Plant response rating, Crabgrass, Large", "setting": "[1]; [8]", "value": 50}, {"measurement": "Plant response rating, Crabgrass, Large", "setting": "[1]; 250 g ai/ha, scale 0-100", "value": 100}, {"measurement": "Plant response rating, Crabgrass, Large", "setting": "[1]; [15]", "value": 100}, {"measurement": "Rice plant response rating (0 to 100 scale)", "setting": "[2]; [9]", "value": 0}, {"measurement": "Plant response rating, Rice", "setting": "[2]; visual rating, 0 = no effect, 100 = complete control", "value": 40}, {"measurement": "Barnyardgrass plant response rating", "setting": "[3]; [11]", "value": 25}, {"measurement": "Plant response rating, Barnyardgrass", "setting": "[3]; [12]", "value": 45}, {"measurement": "Barnyardgrass plant response rating", "setting": "[3]; [13]", "value": 70}, {"measurement": "Barnyardgrass plant response rating", "setting": "[3]; [14]", "value": 40}, {"measurement": "Plant response rating, Pigweed", "setting": "[4]; 62 g ai/ha, scale 0 to 100", "value": 80}, {"measurement": "Plant response rating, Pigweed", "setting": "[4]; [8]", "value": 100}, {"measurement": "Plant response rating, Pigweed", "setting": "[4]; 250 g ai/ha, scale 0-100", "value": 100}, {"measurement": "Plant response rating, Pigweed", "setting": "[4]; [15]", "value": 100}, {"measurement": "Plant response rating, Nightshade", "setting": "[5]; 62 g ai/ha, scale 0 to 100", "value": 100}, {"measurement": "Plant response rating, Nightshade", "setting": "[5]; [8]", "value": 100}, {"measurement": "Plant response rating, Nightshade", "setting": "[5]; 250 g ai/ha, scale 0-100", "value": 100}, {"measurement": "Plant response rating, Nightshade", "setting": "[5]; [15]", "value": 100}, {"measurement": "Plant response rating, Ragweed", "setting": "[6]; 62 g ai/ha, scale 0 to 100", "value": 0}, {"measurement": "Plant response rating, Ragweed", "setting": "[6]; [8]", "value": 0}, {"measurement": "Plant response rating, Ragweed", "setting": "[6]; 250 g ai/ha, scale 0-100", "value": 0}, {"measurement": "Plant response rating, Ragweed", "setting": "[6]; [15]", "value": 0}, {"measurement": "Plant response rating, Surinam Grass", "setting": "[7]; 62 g ai/ha, scale 0 to 100", "value": 0}, {"measurement": "Plant response rating, Surinam Grass", "setting": "[7]; [8]", "value": 0}, {"measurement": "Plant response rating, Surinam Grass", "setting": "[7]; 250 g ai/ha, scale 0-100", "value": 20}, {"measurement": "Plant response rating, Surinam Grass", "setting": "[7]; [15]", "value": 60}]}
